Measurements published in ChEMBL document CHEMBL1155905, “Carbonic anhydrase inhibitors. Interaction of the antitumor sulfamate EMD 486019 with twelve mammalian carbonic anhydrase isoforms: Kinetic and X-ray crystallographic studies” (Bioorg Med Chem Lett, 2008).

Legend:
[1] = target: Carbonic anhydrase 5A, mitochondrial (Homo sapiens, UniProt P35218)
[2] = target: Carbonic anhydrase 14 (Homo sapiens, UniProt Q9ULX7)
[3] = target: Carbonic anhydrase 6 (Homo sapiens, UniProt P23280)
Description: Inhibition of human cloned CA6 by stopped-flow CO2 hydration method

[4] = target: Carbonic anhydrase 7 (Homo sapiens, UniProt P43166); assay: Inhibition of human cloned CA7 by stopped-flow CO2 hydration method
Carbonic anhydrase 7, sequence (P43166 whole entry): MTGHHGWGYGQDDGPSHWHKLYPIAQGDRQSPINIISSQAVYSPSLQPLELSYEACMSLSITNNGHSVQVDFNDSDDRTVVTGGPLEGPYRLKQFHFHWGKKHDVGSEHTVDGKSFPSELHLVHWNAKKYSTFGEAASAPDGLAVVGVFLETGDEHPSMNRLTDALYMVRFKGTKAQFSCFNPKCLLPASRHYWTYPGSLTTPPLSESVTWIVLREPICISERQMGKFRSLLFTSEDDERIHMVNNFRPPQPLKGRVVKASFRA

[5] = target: Carbonic anhydrase 1 (Homo sapiens, UniProt P00915)
Carbonic anhydrase 1, sequence (P00915 whole entry): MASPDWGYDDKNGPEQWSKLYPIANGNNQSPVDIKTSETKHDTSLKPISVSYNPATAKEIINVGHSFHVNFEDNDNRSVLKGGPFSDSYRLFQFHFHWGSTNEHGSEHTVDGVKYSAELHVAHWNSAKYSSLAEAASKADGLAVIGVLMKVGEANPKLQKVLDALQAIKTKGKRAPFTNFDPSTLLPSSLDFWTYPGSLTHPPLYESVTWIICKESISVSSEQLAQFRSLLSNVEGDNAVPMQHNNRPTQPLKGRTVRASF
Description: Inhibition of human cloned CA1 by stopped-flow CO2 hydration method

[6] = target: Carbonic anhydrase 12 (Homo sapiens, UniProt O43570)
Carbonic anhydrase 12, sequence (O43570 whole entry): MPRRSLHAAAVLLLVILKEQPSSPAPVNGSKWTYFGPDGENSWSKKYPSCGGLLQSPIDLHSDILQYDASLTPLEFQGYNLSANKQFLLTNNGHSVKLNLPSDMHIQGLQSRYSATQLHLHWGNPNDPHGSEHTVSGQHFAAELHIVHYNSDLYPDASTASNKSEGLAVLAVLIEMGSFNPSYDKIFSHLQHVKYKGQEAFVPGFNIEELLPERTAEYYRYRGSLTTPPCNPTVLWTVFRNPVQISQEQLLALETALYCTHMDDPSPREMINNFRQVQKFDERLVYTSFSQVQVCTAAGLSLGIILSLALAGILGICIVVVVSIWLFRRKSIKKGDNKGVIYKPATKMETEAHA
Description: Inhibition of human cloned CA12 catalytic domain by stopped-flow CO2 hydration method

[7] = target: Carbonic anhydrase 13 (Mus musculus, UniProt Q9D6N1)
Carbonic anhydrase 13, sequence (Q9D6N1 whole entry): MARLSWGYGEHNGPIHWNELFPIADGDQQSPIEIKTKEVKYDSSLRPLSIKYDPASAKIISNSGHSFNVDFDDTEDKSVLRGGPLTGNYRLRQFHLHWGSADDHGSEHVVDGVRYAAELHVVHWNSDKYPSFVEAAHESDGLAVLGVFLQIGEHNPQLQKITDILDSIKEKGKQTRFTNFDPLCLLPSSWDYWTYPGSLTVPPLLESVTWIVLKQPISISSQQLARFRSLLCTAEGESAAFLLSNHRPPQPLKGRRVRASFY
Description: Inhibition of mouse CA13 by stopped-flow CO2 hydration method

[8] = target: Carbonic anhydrase 4 (Homo sapiens, UniProt P22748)
Carbonic anhydrase 4, sequence (P22748 whole entry): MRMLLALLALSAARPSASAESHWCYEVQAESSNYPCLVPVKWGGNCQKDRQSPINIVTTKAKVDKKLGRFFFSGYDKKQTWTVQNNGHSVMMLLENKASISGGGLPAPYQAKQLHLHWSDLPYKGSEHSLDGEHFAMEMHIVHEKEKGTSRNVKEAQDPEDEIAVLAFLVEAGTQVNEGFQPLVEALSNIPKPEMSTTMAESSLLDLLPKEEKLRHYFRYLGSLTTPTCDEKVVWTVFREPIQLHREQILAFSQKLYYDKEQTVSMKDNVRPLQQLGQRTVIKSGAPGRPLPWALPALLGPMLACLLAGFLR

[9] = target: Carbonic anhydrase 3 (Homo sapiens, UniProt P07451)
Carbonic anhydrase 3, sequence (P07451 whole entry): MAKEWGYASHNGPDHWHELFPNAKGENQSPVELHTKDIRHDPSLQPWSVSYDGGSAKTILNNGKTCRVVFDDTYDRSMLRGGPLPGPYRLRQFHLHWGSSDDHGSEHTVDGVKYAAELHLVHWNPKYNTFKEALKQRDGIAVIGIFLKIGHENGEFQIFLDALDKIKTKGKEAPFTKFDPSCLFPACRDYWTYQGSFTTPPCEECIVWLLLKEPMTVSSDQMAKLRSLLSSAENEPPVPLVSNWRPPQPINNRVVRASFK
Description: Inhibition of human cloned CA3 by stopped-flow CO2 hydration method

[10] = target: Carbonic anhydrase 9 (Homo sapiens, UniProt Q16790)
Description: Inhibition of human cloned CA9 catalytic domain by stopped-flow CO2 hydration method

[11] = target: Carbonic anhydrase 5B, mitochondrial (Homo sapiens, UniProt Q9Y2D0)
Carbonic anhydrase 5B, mitochondrial, sequence (Q9Y2D0 whole entry): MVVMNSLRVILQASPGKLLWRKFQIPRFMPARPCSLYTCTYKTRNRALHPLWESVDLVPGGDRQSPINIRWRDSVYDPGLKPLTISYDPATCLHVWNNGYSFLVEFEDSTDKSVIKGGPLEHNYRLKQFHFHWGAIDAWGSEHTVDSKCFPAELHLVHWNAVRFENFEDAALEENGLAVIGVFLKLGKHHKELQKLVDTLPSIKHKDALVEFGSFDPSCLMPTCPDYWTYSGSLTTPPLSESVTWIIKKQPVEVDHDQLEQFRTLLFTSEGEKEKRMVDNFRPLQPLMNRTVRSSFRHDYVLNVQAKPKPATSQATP

Carbonic anhydrase 5A, mitochondrial, sequence (P35218 whole entry): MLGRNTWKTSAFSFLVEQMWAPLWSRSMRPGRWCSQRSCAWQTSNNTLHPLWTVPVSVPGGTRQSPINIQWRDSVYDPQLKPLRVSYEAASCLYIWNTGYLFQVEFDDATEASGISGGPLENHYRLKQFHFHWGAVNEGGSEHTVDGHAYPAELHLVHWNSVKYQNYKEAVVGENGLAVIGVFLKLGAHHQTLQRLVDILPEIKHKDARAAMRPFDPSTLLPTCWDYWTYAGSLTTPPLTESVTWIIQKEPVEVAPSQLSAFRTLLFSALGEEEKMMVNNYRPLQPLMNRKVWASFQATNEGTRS
Carbonic anhydrase 6, sequence (P23280 whole entry): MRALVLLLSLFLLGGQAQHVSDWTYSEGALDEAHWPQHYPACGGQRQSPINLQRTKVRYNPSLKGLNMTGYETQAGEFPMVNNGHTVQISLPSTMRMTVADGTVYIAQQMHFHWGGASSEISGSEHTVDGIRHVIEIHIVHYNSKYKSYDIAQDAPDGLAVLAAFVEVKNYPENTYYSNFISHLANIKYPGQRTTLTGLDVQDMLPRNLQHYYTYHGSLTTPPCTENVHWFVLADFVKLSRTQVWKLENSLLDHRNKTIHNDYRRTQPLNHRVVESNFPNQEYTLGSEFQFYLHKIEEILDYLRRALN
Carbonic anhydrase 14, sequence (Q9ULX7 whole entry): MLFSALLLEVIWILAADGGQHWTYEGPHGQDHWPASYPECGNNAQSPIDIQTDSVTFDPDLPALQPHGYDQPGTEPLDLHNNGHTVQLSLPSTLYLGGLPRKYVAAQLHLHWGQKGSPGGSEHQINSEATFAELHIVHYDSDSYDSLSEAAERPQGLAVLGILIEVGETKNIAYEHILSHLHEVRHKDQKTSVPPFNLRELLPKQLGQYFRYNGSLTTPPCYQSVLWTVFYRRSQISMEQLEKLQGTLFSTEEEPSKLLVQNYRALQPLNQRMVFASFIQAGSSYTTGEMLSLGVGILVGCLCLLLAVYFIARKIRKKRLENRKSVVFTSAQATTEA

For `NS(=O)(=O)Oc1ccc2c3c(c(=O)oc2c1)CCCCC3` [IROSUSTAT], the Ki [1] was 0.765 µM, the Ki [2] was 0.755 µM and the Ki [3] was 0.653 µM. The Ki [4] was 0.023 µM, the Ki [5] was 3.45 µM and the Ki [6] was 0.012 µM. It also gave a Ki [7] of 1.05 µM, a Ki [8] of 0.024 µM and a Ki [9] of 700 µM. The Ki [10] was 0.034 µM and the Ki [11] was 0.72 µM.

`NS(=O)(=O)Oc1ccc2c(c1)S(=O)(=O)C(CC1CCCCCC1)=C2` gave a Ki [1] of 0.682 µM, a Ki [2] of 0.013 µM and a Ki [3] of 0.654 µM. It also gave a Ki [5] of 3.6 µM, a Ki [6] of 0.013 µM and a Ki [7] of 0.066 µM. For the same molecule, the Ki [8] was 0.842 µM, the Ki [9] was 740 µM and the Ki [10] was 0.018 µM. For the same molecule, the Ki [11] was 0.018 µM.
